Results: patent US9474758B2, “Thienopyrimidinedione derivatives as TRPA1 modulators” (Glenmark Pharmaceuticals S.A., priority 2009, dated 2016)

Target: T1, Human TRPA1 expressing CHO cells (Homo sapiens, UniProt O75762)
T1 construct: expressed in transfected cells; host or cells: CHO cells (G-418 selection)
Experiment: 45Calcium uptake assay, inhibition of AITC induced calcium uptake (human)
Type: cell-based
Details: human TRPA1 CHO cells, AITC 30 μM; for inhibition at 1 µM: compound 1.0 μM, read-out: Percentage inhibition at 1.0 μM; for inhibition at 10 µM: compound 10.0 μM, read-out: Percentage inhibition at 10.0 μM; for IC50: read-out: Human IC50 value (Range)
Experimental: Screening for TRPA1 Antagonist Using the ^45Calcium Uptake Assay:
The inhibition of TRPA1 receptor activation was measured as inhibition of allyl isothiocyanate (AITC) induced cellular uptake of radioactive calcium.
Test compounds were dissolved in 100% DMSO to prepare 10 mM stock and then diluted using plain medium with 0.1% BSA and 1.8 mM CaCl2 to get the desired concentration. The final concentration of DMSO in the reaction was 0.5% (v/v). […] Rat TRPA1 expressing CHO cells were grown in F-12 DMEM medium with 10% FBS, 1% penicillin-streptomycin solution, and 400 μg/ml of Zeocin. […] Cells were treated with the test compounds for 10 minutes followed by the addition of AITC at a final concentration of 30 μM (for human TRPA1) and/or 10 μM (for rat TRPA1) and 5 μCi/ml ^45Ca^+2 for 3 minutes. Cells were washed and lysed using a buffer containing 1% Triton X-100, 0.1% deoxycholate and 0.1% SDS. Radioactivity in the lysate was measured in a Packard TopCount after addition of liquid scintillant.
Concentration response curves were plotted as a % of maximal response obtained in the absence of test antagonist. IC50 values can be calculated from concentration response curve by nonlinear regression analysis using GraphPad PRISM software.

T1 sequence (O75762 whole entry): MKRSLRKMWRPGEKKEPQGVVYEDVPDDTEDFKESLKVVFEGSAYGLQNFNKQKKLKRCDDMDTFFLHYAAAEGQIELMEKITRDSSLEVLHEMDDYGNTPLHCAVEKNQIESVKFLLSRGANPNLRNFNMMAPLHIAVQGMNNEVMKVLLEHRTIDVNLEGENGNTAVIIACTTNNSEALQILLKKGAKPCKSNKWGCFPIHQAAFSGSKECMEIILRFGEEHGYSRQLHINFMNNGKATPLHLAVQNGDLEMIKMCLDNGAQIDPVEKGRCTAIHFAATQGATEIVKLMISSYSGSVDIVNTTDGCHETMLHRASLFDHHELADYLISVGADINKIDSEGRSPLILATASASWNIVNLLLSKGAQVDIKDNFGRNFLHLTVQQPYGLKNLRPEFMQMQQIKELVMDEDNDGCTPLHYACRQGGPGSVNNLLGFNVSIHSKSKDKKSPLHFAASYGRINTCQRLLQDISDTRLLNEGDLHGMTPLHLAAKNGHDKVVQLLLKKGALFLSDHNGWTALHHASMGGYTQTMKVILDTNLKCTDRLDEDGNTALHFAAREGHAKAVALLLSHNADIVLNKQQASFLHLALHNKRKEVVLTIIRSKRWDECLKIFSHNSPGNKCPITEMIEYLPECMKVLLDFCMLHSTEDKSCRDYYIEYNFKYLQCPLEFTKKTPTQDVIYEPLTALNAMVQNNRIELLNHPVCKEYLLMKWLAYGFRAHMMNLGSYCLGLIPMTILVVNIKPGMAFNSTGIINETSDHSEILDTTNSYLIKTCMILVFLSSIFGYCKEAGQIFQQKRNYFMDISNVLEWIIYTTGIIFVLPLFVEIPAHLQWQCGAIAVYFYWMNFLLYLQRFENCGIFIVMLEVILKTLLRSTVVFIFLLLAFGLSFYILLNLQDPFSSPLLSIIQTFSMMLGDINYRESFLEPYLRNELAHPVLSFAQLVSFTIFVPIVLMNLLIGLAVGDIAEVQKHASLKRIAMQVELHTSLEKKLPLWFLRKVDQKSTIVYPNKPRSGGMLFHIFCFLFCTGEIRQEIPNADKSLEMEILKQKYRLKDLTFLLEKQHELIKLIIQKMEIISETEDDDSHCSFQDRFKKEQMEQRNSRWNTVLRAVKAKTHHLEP

Structure (SMILES)	inhibition at 1 µM [%]	inhibition at 10 µM [%]	IC50 [nM]
Cn1c(=O)c2c(CC(=O)Nc3nnc(-c4ccc(Br)cc4)s3)csc2n(C)c1=O [Example 42, N-[5-(4-Bromophenyl)-1,3,4-thiadiazol-2-yl]-2-(1,3-dimethyl-2,4-dioxo-1,2,3,4-tetrahydrothieno[2,3-d]pyrimidin-5-yl)acetamide]	9.74	74.6	–
Cn1c(=O)c2c(CC(=O)Nc3nccc(-c4ccc(Br)cc4)n3)csc2n(C)c1=O [Example 43, N-[4-(4-Bromophenyl)pyrimidin-2-yl]-2-(1,3-dimethyl-2,4-dioxo-1,2,3,4-tetrahydrothieno[2,3-d]pyrimidin-5-yl)acetamide]	30.5	4.42	–
Cn1c(=O)c2c(CC(=O)Nc3cc(-c4ccc(Br)cc4)on3)csc2n(C)c1=O [Example 39, N-[5-(4-Bromophenyl)isoxazol-3-yl]-2-(1,3-dimethyl-2,4-dioxo-1,2,3,4-tetrahydrothieno[2,3-d]pyrimidin-5-yl)acetamide]	47.8	78.6	–
Cn1c(=O)c2c(CC(=O)Nc3nc(C(F)(F)F)cs3)csc2n(C)c1=O [Example 1, 2-(1,3-Dimethyl-2,4-dioxo-1,2,3,4-tetrahydrothieno[2,3-d]pyrimidin-5-yl)-N-[4-(trifluoromethyl)-1,3-thiazol-2-yl]acetamide]	13.2	46	–
Cc1sc2c(c1CC(=O)Nc1nc(-c3cccc(OC(F)(F)F)c3)c[nH]1)c(=O)n(C)c(=O)n2C [Example 28, N-[4-(3-Trifluoromethoxyphenyl)-1H-imidazol-2-yl]-2-(1,3,6-trimethyl-2,4-dioxo-1,2,3,4-tetrahydrothieno[2,3-d]pyrimidin-5-yl)acetamide]	10	46.8	–
Cn1c(=O)c2c(CC(=O)Nc3cc(-c4ccc(Cl)cc4)no3)csc2n(C)c1=O [Example 38, N-[3-(4-Chlorophenyl)isoxazol-5-yl]-2-(1,3-dimethyl-2,4-dioxo-1,2,3,4-tetrahydrothieno[2,3-d]pyrimidin-5-yl)acetamide]	25	87.9	–
CC(C)Cc1ccc(-c2csc(NC(=O)Cc3csc4c3c(=O)n(C)c(=O)n4C)n2)cc1 [Example 4, 2-(1,3-Dimethyl-2,4-dioxo-1,2,3,4-tetrahydrothieno[2,3-d]pyrimidin-5-yl)-N-[4-(4-isobutylphenyl)-1,3-thiazol-2-yl]acetamide]	29.1	99.5	–
Cn1c(=O)c2c(CC(=O)Nc3nc(-c4ccc(C(F)(F)F)c(F)c4F)cs3)csc2n(C)c1=O [Example 15, N-{4-[2,3-Difluoro-4-(trifluoromethyl)phenyl]-1,3-thiazol-2-yl}-2-(1,3-dimethyl-2,4-dioxo-1,2,3,4-tetrahydrothieno[2,3-d]pyrimidin-5-yl)acetamide]	60	96.8	–
Cn1c(=O)c2c(CC(=O)Nc3ccn(-c4ccc(Br)cc4)n3)csc2n(C)c1=O [Example 40, N-[1-(4-Bromophenyl)-1H-pyrazol-3-yl]-2-(1,3-dimethyl-2,4-dioxo-1,2,3,4-tetrahydrothieno[2,3-d]pyrimidin-5-yl)acetamide]	99.9	100	< 50
Cc1sc2c(c1CC(=O)Nc1nc(-c3ccc(C(F)(F)F)c(F)c3)c[nH]1)c(=O)n(C)c(=O)n2C [Example 29, N-{4-[3-Fluoro-4-(trifluoromethyl)phenyl]-1H-imidazol-2-yl}-2-(1,3,6-trimethyl-2,4-dioxo-1,2,3,4-tetrahydrothieno[2,3-d]pyrimidin-5-yl)acetamide]	91.7	98	50 to 500
